Here are results for 5 compounds from US20220249454A1, “INHIBITORS OF MONOCARBOXYLATE TRANSPORTERS FOR CANCER IMMUNOTHERAPY” (NIROGY THERAPEUTICS, INC., priority 2021, published 2022).

Experiment [1] concerns panel of solid and haemotological tumor cell lines (e.g., Hs578t, SiHa, MDA-MB-231). The experiment can be described thus: MTS cell proliferation assay (cytotoxicity). Format: cell-based. The note with it: Table 1 (Group 1), 72-96 hours, 10 mM lactate medium or RPMI 1640 medium, cell line not stated.
In experiment [2] the test system is monocarboxylate transporters. Put plainly: Lactate detection assay in cancer cell lines (intracellular lactate, Lactate-glo). As to conditions: 24 hours incubation. Format: cell-based. As for the experimental part:
Cells are maintained in their appropriate growth medium (RPMI medium with 2 g/L glucose, 2 mM L-glutamine supplemented with 10% FBS and P/S (growth medium). 15,000-25,000 cells were seeded into white 96-well plates in growth medium and incubated for 24 hours at 37° C. and 5% CO2. A duplicate plate was also seeded for normalization by an MTS assay. Dry weight compound stocks were dissolved to a concentration of 10 mM in 100% DMSO. Compounds were further diluted in the assay medium (Lactate media: 10 mM lactate, 5% FBS, and 1× P/S; Glucose media: RPMI, 5% FBS, and 1× P/S). Growth media was changed 24 hours later to assay medium containing 10 μM compound or vehicle (DMSO) control and incubated for 24 hours. Conditioned media was collected and the cells were washed in 200 μL ice-cold PBS. […] After a 5 minute incubation, 12.5 μL Neutralization solution (1M Trizma) is incubated for 1 minute. Intracellular lactate measurements were performed using a Lactate-glo kit (Promega). Briefly, the lactate detection reagent is mixed immediately before use and 50 μL is pipetted into each well and incubated at room temperature for 1 hour. Lactate is oxidized by enzymatic reactions to generate light. The luminescence is recorded using a Spectramax M5e plate reader and the concentration of lactate is determined using a known concentration of spiked lactate in PBS using GraphPad Prism.

The target in experiment [3] is T1, monocarboxylate transporter 1 (MCT1) (Homo sapiens, UniProt P53985).
T1 sequence (P53985 1-500): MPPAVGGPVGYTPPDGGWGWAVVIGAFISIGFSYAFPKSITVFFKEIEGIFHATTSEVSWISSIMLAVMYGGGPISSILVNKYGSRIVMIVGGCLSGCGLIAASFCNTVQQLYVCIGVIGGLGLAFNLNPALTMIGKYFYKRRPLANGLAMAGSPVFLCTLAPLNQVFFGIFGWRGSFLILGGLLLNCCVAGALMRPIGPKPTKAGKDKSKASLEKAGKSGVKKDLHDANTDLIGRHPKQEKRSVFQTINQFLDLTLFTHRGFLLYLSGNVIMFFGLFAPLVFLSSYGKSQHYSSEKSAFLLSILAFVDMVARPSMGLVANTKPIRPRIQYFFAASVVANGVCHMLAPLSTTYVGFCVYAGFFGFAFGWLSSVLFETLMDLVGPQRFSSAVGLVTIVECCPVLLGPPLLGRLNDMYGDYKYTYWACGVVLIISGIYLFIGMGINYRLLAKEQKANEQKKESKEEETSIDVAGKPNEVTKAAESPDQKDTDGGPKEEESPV
T1 sequence (P35613 140-385 partner limits assumed): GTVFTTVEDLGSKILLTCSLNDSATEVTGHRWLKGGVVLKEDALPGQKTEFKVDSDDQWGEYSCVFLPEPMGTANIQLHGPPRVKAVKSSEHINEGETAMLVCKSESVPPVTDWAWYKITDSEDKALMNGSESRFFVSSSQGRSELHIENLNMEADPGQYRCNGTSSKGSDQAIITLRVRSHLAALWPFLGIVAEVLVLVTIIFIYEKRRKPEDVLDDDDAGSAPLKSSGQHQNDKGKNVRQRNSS
As to conditions: literature value; cited from earlier work.

The target in experiment [4] is T2, monocarboxylate transporter 4 (MCT4) (Homo sapiens, UniProt O15427).
T2 sequence (O15427 2-465 limits assumed): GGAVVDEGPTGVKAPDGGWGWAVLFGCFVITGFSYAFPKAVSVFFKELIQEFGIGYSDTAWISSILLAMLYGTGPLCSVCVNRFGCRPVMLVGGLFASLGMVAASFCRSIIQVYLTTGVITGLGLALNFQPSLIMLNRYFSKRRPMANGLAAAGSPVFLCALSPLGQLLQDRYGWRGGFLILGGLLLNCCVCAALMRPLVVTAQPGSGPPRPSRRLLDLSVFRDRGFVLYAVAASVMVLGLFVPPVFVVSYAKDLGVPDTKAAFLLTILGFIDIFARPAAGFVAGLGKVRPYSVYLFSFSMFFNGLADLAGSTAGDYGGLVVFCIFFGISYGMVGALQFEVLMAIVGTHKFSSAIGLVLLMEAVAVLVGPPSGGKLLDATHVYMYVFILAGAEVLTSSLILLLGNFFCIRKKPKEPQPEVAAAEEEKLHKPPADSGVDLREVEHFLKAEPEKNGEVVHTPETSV
T2 sequence (P35613 140-385 partner limits assumed): T1 sequence (P35613 140-385 partner limits assumed)
As to conditions: literature value; cited from earlier work.

Experiment [5] has as its system tumor cells. As to conditions: literature, Cell Reports 2019; cited from earlier work.

Where only a bound is given, the exact number is not on record here.

As for `CN(Cc1ccc(F)cc1)c1cc2oc(=O)c(C(=O)O)cc2s1` [Compound 1.002, 2-((4-fluorobenzyl)(methyl)amino)-5-oxo-5H-thieno[3,2-b]pyran-6-carboxylic acid], the IC50 in experiment [1] and in experiment [2] was under 1 µM each time.

In the case of `COc1cccc(C(=O)N(C)c2cc3oc(=O)c(C(=O)O)cc3s2)c1` [Compound 1.009, 2-(3-methoxy-N-methylbenzamido)-5-oxo-5H-thieno[3,2-b]pyran-6-carboxylic acid], the concentration for half-maximal inhibition (IC50) in experiment [1] and in experiment [2] was under 1 µM in each case.

Take `COc1ccccc1C(=O)N(C)c1cc2oc(=O)c(C(=O)O)cc2s1` [Compound 1.017, 2-[(2-Methoxy-benzoyl)-methyl-amino]-5-oxo-5H-thieno[3,2-b]pyran-6-carboxylic acid]: the IC50 in experiment [1] and in experiment [2] was under 1 µM each time.

Turning to `COc1cc(F)ccc1C(=O)N(C)c1cc2oc(=O)c(C(=O)O)cc2s1` [Compound 1.094, 2-(4-fluoro-2-methoxy-N-methylbenzamido)-5-oxo-5H-thieno[3,2-b]pyran-6-carboxylic acid], the IC50 in experiment [1] and in experiment [2] was under 1 µM each time.

Regarding `O=C(O)Cc1ccccc1Nc1c(Cl)cccc1Cl` [diclofenac], the IC50 is 1.4 µM in experiment [3] and 0.14 µM in experiment [4]. In addition, the “concentration required to see efficacy in in vitro models” value in experiment [5] was 150 to 200 µM.

In general, IC50 refers to the midpoint of a concentration-inhibition curve.
